According to patent publication US8772243B2, “Methods for predicting the response to anti-cancer treatment with an agonist of TLR7 or an agonist of TLR8” (Inserm (Institut National de la Sante et de la Recherche …, priority 2008, dated 2014):

How the values were obtained:
[1] = tested on: IκBα (NF-κB activation) in A549 cells; assay: Western blot of IκBα phosphorylation and degradation (NF-κB activation) in A549 cells; assay type: cell-based, human; conditions: loxoribine 10 μg/ml or Poly U 10 μg/ml
Experimental: FIG. 3 TLR7 and TLR8 lead to IκBα phosphorylation, but not degradation. A549 cells were untreated or treated with TNF-α (10 ng/ml) (A, B), loxoribine (10 μg/ml) (C, D), or Poly U (10 μg/ml) (E, F) for the indicated periods of time. The cell lysates were analyzed by immunoblot with anti-phospho-specific IκBα, anti-IκBα and anti-actin antibodies (A, C, E). Quantification of the bands was realized using Image J software (B, D, F). Histograms represent the intensity of each band observed in the blots at the indicated time point and are expressed in arbitrary units normalized to actin intensity (relative intensity) both for phospho-IκBα and IκBα. Results are representative of three independent experiments.
A549 cells (1.10^6 cells) were starved for 4 hours in medium containing 2% FCS, and then stimulated with loxoribine, PolyU, or TNFα (10 ng/ml) for different periods of time as indicated. Cells were lysed in 50 mM Tris-HCl, pH 7.5, 150 mM NaCl, 2 mM EDTA, 0.5% triton X100, 2 mM Na3VO4, 10 mM NaF, and 10 mM sodium pyrophosphate supplemented with a complete protease inhibitor cocktail (Boehringer, Paris, France). Protein contents in the cell lysates were quantified using the quick start Bradford protein assay kit (Biorad, Marnes-La-Coquette, France) to ensure that all samples contained similar amounts of protein. Proteins (30 μg) were resolved in 10% Tris-glycine polyacrylamide gels (Invitrogen, Cergy Pontoise, France) and transferred to PVDF immobilon-P membranes (Millipore, Molsheim, France). Blots were probed with monoclonal antibody against phospho-IκBα (Cell Signaling Technology, Danvers, USA), total IκBα, and actin (Santa Cruz, Le Perray en Yvelines, France).
In order to determine if the TLR7 and 8 expressed by lung tumor cell lines were able to induce intracellular signaling pathways, we studied NF-κB activation in response to stimulation with TNFα, loxoribine (homodimeric TLR7 ligand), or Poly U (homodimeric TLR8 ligand). […] In contrast TLR7 or 8 stimulation led to atypical NF-κB activation. […] Furthermore, we also observed that the kinetics of IκBα phosphorylation were dependent on the stimulus. On the one hand, TNFα stimulation induced two waves of IκBα phosphorylation; the first one after ten minutes was associated with IκBα degradation, and the second one after sixty minutes was not associated with IκBα degradation. On the other hand, we observed that TLR stimulation induced only a phosphorylation of IκBα, with a maximum phosphorylation obtained after thirty minutes without degradation of IκBα.

[2] = tested on: Bcl-2 expression in SCC SK-MES cells; assay: Bcl-2 expression, SK-MES; assay type: cell-based, human; conditions: data not shown
Experimental: Total RNA was extracted from A549 or SK-MES cells stimulated with loxoribine, Poly U, or Gardiquimod for 6 h or from purified human lung cancer cells using the RNeasy isolation-kit RNA (Qiagen, Courtaboeuf, France). The integrity and the quantity of the RNA were evaluated with a bioanalyzer-2100 (Agilent Technologies). All samples were assessed for gene expression analysis using the Taq Man Low-Density Array angiogenesis and immune panel (Applied Biosystem). The RT-PCR experiments were carried-out according to the manufacturer's instructions (Applied-Biosystems). Quantitative real-time TaqMan-PCR was performed using Low-Density-Arrays and the 7900 robotic real-time PCR-system (Applied-Biosystems). The 18S primers and probes were used as internal controls. Data were analyzed using the SDS Software v2.2 (Applied-Biosystems). The ΔCT values were calculated for each gene by subtraction of the CT value of the 18S housekeeping gene from the CT of the gene of interest. The ΔΔCT values were obtained by subtraction of the ΔCT values for unstimulated cells from the […]. The fold increase (arbitrary unit) was obtained by 2^−ΔΔCT.

[3] = tested on: 1549, H1355 and SK-MES cells; assay: Chemoresistance by colony formation assay; assay type: cell-based, human; conditions: stimulated with Loxoribine 100 μM and/or polyU 10 μg/ml on days 0, 3, 6, 9
Experimental: Alternatively, chemoresistance was assessed by the colony formation assay. In this assay, 1549, H1355 and SK-MES cells were seeded in 6-well plates (500 cells per well) and incubated for 15 days at 37° under 5% CO2. The cells were left unstimulated or stimulated 100 μM Loxoribine or with 10 μg/ml single-stranded polyU RNA (InvivoGen) on days 0, 3, 6 and 9. On day 12, different anti-cancer agents were added at the respective LD50 (cisplatin and carboplatin 100 μM, navelbine 50 μM, doxorubicine 2 nM). On day 15, the wells ware washed with PBS, and stained with 6% (vol/vol) glutaraldehyde, 0.5% (wt/vol) crystal violet in water for 30 minutes. The cells were washed and the colonies of more than 50 cells counted. Cell survival was calculated as follows: number of colonies after chemotherapy/number of cells seeded on day 0×plating efficiency, where the plating efficiency is number of colonies/number of cells seeded.

[4] = tested on: A549 cells; assay: A549 xenograft in NOD/SCID mice; assay type: in vivo
Experimental: Mice were anesthetized by intra-peritoneal injection of a solution containing 3.2 mg of ketamine (Virbac) and 0.16 mg of xylasine (Rompum 2%, Bayer Healthcare) in 80 μl of PBS (Gibco). Five days prior to experimentation, A549 cells were pre-stimulated with 100 μM Loxoribine (Invivogen) or left unstimulated. For each condition 5×10^6 cells were diluted in 250 μl PBS and injected subcutaneously to 5 mice per group and were re-stimulated either with 50 μl PBS or with 100 nmol of Loxoribine diluted in 50 μl PBS. Stimulating injections into the tumor site were carried out on the day the cells were injected and then on days 3, 6 and 9. The mice then received either 120 μA PBS, or a chemotherapy of cisplatine (2 mg/kg/injection diluted in 120 μl PBS) on days 18, 20 and 22, both intra-peritoneal. The volume of the tumor was determined by measuring the length (Lg), the width (Wi) of the tumor and by calculating (Lg*(Wi*Wi)/2.

Row | Compound | time at which IκBα was phosphorylated (maximum phosphorylation) [1] | increase in Bcl-2 expression [2] [fold] | resistance of colonies to combined anti-cancer agents [3] | tumor volume by week 14 ([4]; A549 cells pre-stimulated 100 μM, 100 nmol into tumor site days 0, 3, 6, 9, control group 4 cm^3) [cm^3] | metastases at autopsy ([4]; Loxoribine mice versus control mice) | time of 50% mortality ([4]; Loxoribine mice, NS mice towards week 17) [week] | tumor volume seven weeks after injection of tumor cells ([4]; PBS-treated Loxoribine pre-stimulated group, PBS-treated NS group 1.9 cm^3) [cm^3] | tumor volume ratio, Loxoribine pre-stimulated versus NS group ([4]; PBS-treated, seven weeks after injection) [times]
1 | C=CCn1c(=O)n([C@@H]2O[C@H](CO)[C@@H](O)[C@H]2O)c2nc(N)[nH]c(=O)c21 [loxoribine, 7-allyl-7,8-dihydro-8-oxo-guanosine] | thirty | 100 | more resistant to treatment with combined anti-cancer agents | 8 | more ganglionic and pulmonary metastases than control mice | ~15 | 5.3 | 2.5
2 | Poly U | thirty | 100 | more resistant to treatment with combined anti-cancer agents |  |  |  |  | 
